Data taken from patent US20250109134A1 (Ascentage Pharma (Suzhou) Co., Ltd., priority 2022, published 2025).

Test: Polymorph screening (suspension, anti-solvent, gas-liquid diffusion, slow volatilization methods), resulting form by XRPD
Assay type: physicochemical
Settings: for XRPD results: methanol solution, no precipitation, open-to-air volatilization
Procedure: The sample was quickly centrifuged (6000 rpm, 5 min) to remove a supernatant. The resulting precipitate was subjected to vacuum drying (40° C., −0.1 MPa) for 20 h, followed by physical characterization.
The resulting precipitate was subjected to vacuum drying at 40° C. for 20 h, followed by physical characterization.
No clear solution was obtained, and the sample was still undissolved after 1 mL of solvent was added. Then, 500 μL of poor solvent (acetone, ACN, MeOH, EtOAc, THE, or […]) was added, and 40 mg of the sample was added to perform an experiment by a suspension method. All suspension samples were stirred at 50° C. for 2 days and quickly centrifuged (6000 rpm, 5 min) to remove a supernatant. The resulting solid was subjected to vacuum drying at 40° C. for 20 h, followed by physical characterization.
The compound of formula I was subjected to polymorph screening with DCM as a good solvent and with MeOH, EtOH, THE, or EA as an anti-solvent, and was dissolved in both DCM and MeOH systems. The suspension sample was stirred for 2 days and quickly centrifuged to remove a supernatant. The resulting precipitate was subjected to vacuum drying at 25° C. for 20 h, followed by physical characterization.
The resulting precipitate was subjected to vacuum drying at room temperature for 20 h, followed by physical characterization.
The resulting precipitate was subjected to vacuum drying for 20 h.
Sonication was performed for 1 min to obtain a clear solution, which was filtered through a 0.22 μm filter membrane and aliquoted into seven 8 mL glass flasks. An anti-solvent was added until precipitation occurred. The sample was stirred at room temperature for 1 day and quickly centrifuged. The resulting solid precipitate was subjected to vacuum drying.
Then, an anti-solvent was added until precipitation occurred, and the mixture was stirred at room temperature overnight and quickly centrifuged (6000 rpm, 6 min) to remove a supernatant. The resulting precipitate was subjected to vacuum drying for 20 h.
Then, the solution was added to a 20 mL glass flask containing 2 mL of an anti-solvent (shown in the following table), and the flask was tightly capped at room temperature and placed in a fume hood for diffusion. When precipitation occurred, the flask was taken out, and the resulting precipitate was subjected to vacuum drying for 20 h.
The flask placed in a fume hood at room temperature for diffusion. When precipitation occurred, the flask was taken out, and the resulting precipitate was subjected to vacuum drying for 20 h.
The mixture was stirred at 50° C. or room temperature for 6 days and quickly centrifuged (6000 rpm, […]) to remove a supernatant. The resulting precipitate was subjected to vacuum drying for 20 h.

[1] = solvent 1,4-Dixoane, suspension, 6 days

Structure (SMILES): CC(C)N1Cc2cc(C(F)(F)F)ncc2-c2cnc(NCc3c(F)ccc4c3CCO4)n3cnc(c23)C1=O
- Crystalline form results 50° C. [1]: 1,4-dioxane solvate
- Crystalline form results Room temperature [1]: 1,4-dioxane solvate

Structure (SMILES): CC(C)N1Cc2cc(C(F)(F)F)ncc2-c2cnc(NCc3c(F)ccc4c3CCO4)n3cnc(c23)C1=O.Cl
- Crystalline form results (solvent 1,4-dioxane, suspension, 40° C., 3 days, from crystalline form A of hydrochloride salt): Crystalline form A of hydrochloride salt
- Crystalline form results (solvent 88% acetone, suspension, 40° C., 3 days, from crystalline form A of hydrochloride salt): Crystalline form B
- Crystalline form results (solvent ACN, suspension, 40° C., 3 days, from crystalline form A of hydrochloride salt): Crystalline form A of hydrochloride salt
- Crystalline form results (solvent Acetone, suspension, 40° C., 3 days, from crystalline form A of hydrochloride salt): Crystalline form A of hydrochloride salt
- Crystalline form results (solvent EtOAc, suspension, 40° C., 3 days, from crystalline form A of hydrochloride salt): Crystalline form A of hydrochloride salt
- Crystalline form results (solvent EtOH, suspension, 40° C., 3 days, from crystalline form A of hydrochloride salt): Ethanol solvate of hydrochloride salt
- Crystalline form results (solvent EtOH—H2O = 3-1, suspension, 40° C., 3 days, from crystalline form A of hydrochloride salt): Crystalline form A
- Crystalline form results (solvent H2O, suspension, 40° C., 3 days, from crystalline form A of hydrochloride salt): Crystalline form A of hydrochloride salt
- Crystalline form results (solvent IPA, suspension, 40° C., 3 days, from crystalline form A of hydrochloride salt): Isopropanol solvate of hydrochloride salt
- Crystalline form results (solvent MeOH, suspension, 40° C., 3 days, from crystalline form A of hydrochloride salt): Partial dissociation into crystalline form A
- Crystalline form results (solvent MeOH—H2O = 3-1, suspension, 40° C., 3 days, from crystalline form A of hydrochloride salt): Crystalline form A
- Crystalline form results (solvent Toluene, suspension, 40° C., 3 days, from crystalline form A of hydrochloride salt): Crystalline form A of hydrochloride salt
- Crystalline form results (solvent n-butanol, suspension, 40° C., 3 days, from crystalline form A of hydrochloride salt): Crystalline form A of hydrochloride salt

Structure (SMILES): CC(C)N1Cc2cc(C(F)(F)F)ncc2-c2cnc(NCc3c(F)ccc4c3CCO4)n3cnc(c23)C1=O.CS(=O)(=O)O
- Crystalline form results (anti-solvent method, good solvent DCM/MeOH = 2-1 (20 mg/mL), anti-solvent Methyl acetate, room temperature overnight): No precipitation
- Crystalline form results (anti-solvent method, good solvent DMF (50 mg/mL), anti-solvent Acetonitrile, room temperature overnight): Crystalline form A
- Crystalline form results (anti-solvent method, good solvent DMF (50 mg/mL), anti-solvent Dimethyl tetrahydrofuran, room temperature overnight): No precipitation
- Crystalline form results (anti-solvent method, good solvent DMF (50 mg/mL), anti-solvent Methyl acetate, room temperature overnight): Dissociation into a free base
- Crystalline form results (anti-solvent method, good solvent DMF (50 mg/mL), anti-solvent n-heptane, room temperature overnight): No precipitation
- Crystalline form results (anti-solvent method, good solvent MeOH (10 mg/mL), anti-solvent Acetonitrile, room temperature overnight): No precipitation
- Crystalline form results (anti-solvent method, good solvent MeOH (10 mg/mL), anti-solvent Dimethyl tetrahydrofuran, room temperature overnight): No precipitation
- Crystalline form results (anti-solvent method, good solvent MeOH (10 mg/mL), anti-solvent Methyl acetate, room temperature overnight): No precipitation
- Crystalline form results (anti-solvent method, good solvent MeOH (10 mg/mL), anti-solvent n-heptane, room temperature overnight): No precipitation
- Crystalline form results (anti-solvent method, good solvent NMP (50 mg/mL), anti-solvent Acetonitrile, room temperature overnight): Presumably an NMP solvate
- Crystalline form results (anti-solvent method, good solvent NMP (50 mg/mL), anti-solvent Dimethyl tetrahydrofuran, room temperature overnight): Presumably an NMP solvate
- Crystalline form results (anti-solvent method, good solvent NMP (50 mg/mL), anti-solvent Ethyl acetate, room temperature overnight): Dissociation into a free base
- Crystalline form results (anti-solvent method, good solvent NMP (50 mg/mL), anti-solvent Methyl acetate, room temperature overnight): Presumably an NMP solvate
- Crystalline form results (anti-solvent method, good solvent NMP (50 mg/mL), anti-solvent Tert-butyl methyl ether, room temperature overnight): Presumably an NMP solvate
- Crystalline form results (anti-solvent method, good solvent NMP (50 mg/mL), anti-solvent n-heptane, room temperature overnight): Presumably an NMP solvate
- Crystalline form results (gas-liquid diffusion method, good solvent DMF (50 mg/mL), anti-solvent 2-MeTHF, room temperature): No precipitation
- Crystalline form results (gas-liquid diffusion method, good solvent DMF (50 mg/mL), anti-solvent ACN, room temperature): No precipitation
- Crystalline form results (gas-liquid diffusion method, good solvent DMF (50 mg/mL), anti-solvent EtOAc, room temperature): No precipitation
- Crystalline form results (gas-liquid diffusion method, good solvent DMF (50 mg/mL), anti-solvent FA, room temperature): No precipitation
- Crystalline form results (gas-liquid diffusion method, good solvent DMF (50 mg/mL), anti-solvent Heptane, room temperature): No precipitation
- Crystalline form results (gas-liquid diffusion method, good solvent DMF (50 mg/mL), anti-solvent MTBE, room temperature): No precipitation
- Crystalline form results (gas-liquid diffusion method, good solvent MeOH (10 mg/mL), anti-solvent 2-MeTHF, room temperature): No precipitation
- Crystalline form results (gas-liquid diffusion method, good solvent MeOH (10 mg/mL), anti-solvent ACN, room temperature): No precipitation
- Crystalline form results (gas-liquid diffusion method, good solvent MeOH (10 mg/mL), anti-solvent FA, room temperature): No precipitation
- Crystalline form results (gas-liquid diffusion method, good solvent MeOH (10 mg/mL), anti-solvent Heptane, room temperature): No precipitation
- Crystalline form results (gas-liquid diffusion method, good solvent NMP (50 mg/mL), anti-solvent 2-MeTHF, room temperature): Possibly an NMP solvate
- Crystalline form results (gas-liquid diffusion method, good solvent NMP (50 mg/mL), anti-solvent ACN, room temperature): Possibly an NMP solvate
- Crystalline form results (gas-liquid diffusion method, good solvent NMP (50 mg/mL), anti-solvent EtOAc, room temperature): Dissociation into a free base
- Crystalline form results (gas-liquid diffusion method, good solvent NMP (50 mg/mL), anti-solvent FA, room temperature): Possibly an NMP solvate
- Crystalline form results (gas-liquid diffusion method, good solvent NMP (50 mg/mL), anti-solvent Heptane, room temperature): Possibly an NMP solvate
- Crystalline form results (gas-liquid diffusion method, good solvent NMP (50 mg/mL), anti-solvent MTBE, room temperature): Possibly an NMP solvate
- Crystalline form results (slow volatilization method, solvent DCM/MeOH = 2-1, room temperature): Crystalline form B
- Crystalline form results (slow volatilization method, solvent EtOH/EA = 2-1, room temperature): Crystalline form A
- Crystalline form results (slow volatilization method, solvent EtOH, room temperature): Crystalline form B
- Crystalline form results (slow volatilization method, solvent MeOH/FA = 2-1, room temperature): Crystalline form B
- Crystalline form results (slow volatilization method, solvent MeOH, room temperature): Crystalline form A
- Crystalline form results (solvent ACN—H2O 1-1, initial crystalline form A of methanesulfonate salt): Crystalline form A
- Crystalline form results (solvent H2O, initial crystalline form A of methanesulfonate salt): Crystalline form A
- Crystalline form results (solvent MeOH—H2O 1-1, initial crystalline form A of methanesulfonate salt): Crystalline form A

Structure (SMILES): CC(C)N1Cc2cc(C(F)(F)F)ncc2-c2cnc(NCc3c(F)ccc4c3CCO4)n3cnc(c23)C1=O.O=S(=O)(O)O
- XRPD results (anti-solvent method, anti-solvent Acetone): Crystalline form B
- XRPD results (anti-solvent method, anti-solvent Heptane): Crystalline form A
- Crystalline form results (solvent 88% acetone, suspension, 40° C., 3 days, from crystalline form A of sulfate salt): Crystalline form B
- Crystalline form results (solvent ACN, suspension, 40° C., 3 days, from crystalline form A of sulfate salt): Crystalline form A of sulfate salt
- Crystalline form results (solvent ACN—H2O = 1:1, suspension, 40° C., 3 days, from crystalline form A of sulfate salt): Crystalline form A
- Crystalline form results (solvent Acetone, suspension, 40° C., 3 days, from crystalline form A of sulfate salt): Crystalline form A of sulfate salt
- Crystalline form results (solvent DCM/MeOH = 1:1, suspension, 40° C., 3 days, from crystalline form A of sulfate salt): Crystalline form A
- Crystalline form results (solvent EtOAc, suspension, 40° C., 3 days, from crystalline form A of sulfate salt): Sulfate salt forming into sulfate
- Crystalline form results (solvent EtOH, suspension, 40° C., 3 days, from crystalline form A of sulfate salt): Sulfate salt forming into sulfate
- Crystalline form results (solvent EtOH—H2O = 3:1, suspension, 40° C., 3 days, from crystalline form A of sulfate salt): Crystalline form A
- Crystalline form results (solvent IPA, suspension, 40° C., 3 days, from crystalline form A of sulfate salt): Sulfate salt forming into sulfate
- Crystalline form results (solvent MeOH, suspension, 40° C., 3 days, from crystalline form A of sulfate salt): Crystalline form A
- Crystalline form results (solvent MeOH—H2O = 3:1, suspension, 40° C., 3 days, from crystalline form A of sulfate salt): Crystalline form A
- Crystalline form results (solvent THF, suspension, 40° C., 3 days, from crystalline form A of sulfate salt): Crystalline form A of sulfate salt
- Crystalline form results (solvent Toluene, suspension, 40° C., 3 days, from crystalline form A of sulfate salt): Crystalline form A of sulfate salt
